From ChEMBL document CHEMBL5331054, “Antibacterial quaternary ammonium agents: Chemical diversity and biological mechanism” (Eur J Med Chem, 2022) come the findings set out here.

In assay [1] the test system is Pseudomonas aeruginosa. In words: Antibacterial activity against Pseudomonas aeruginosa assessed as bacterial growth inhibition incubated for 72 hrs by microdilution method. It is filed as functional. The note with it: Pseudomonas aeruginosa, 72 h, read-out: MIC.
The test system of assay [2] is Escherichia coli. In words: Antibacterial activity against Escherichia coli assessed as bacterial growth inhibition incubated for 72 hrs by microdilution method. The note with it: Escherichia coli, 72 h, read-out: MIC. Type of assay: functional.
For assay [3], the system named is Staphylococcus aureus. Put plainly: Antibiofilm activity against Staphylococcus aureus ATCC 33591 assessed as reduction in biofilm activity. It is filed as functional.
The subject of assay [4] is Staphylococcus aureus. Put plainly: Antibacterial activity against Staphylococcus aureus assessed as bacterial growth inhibition incubated for 72 hrs by microdilution assay. Type of assay: functional, organism-based. The note with it: Staphylococcus aureus; time 72 hrs.
Assay [5] deals with Enterococcus faecalis. In words: Antibacterial activity against Enterococcus faecalis assessed as bacterial growth inhibition incubated for 72 hrs by microdilution method. Type of assay: functional.
Assay [6] has as its system Enterococcus faecalis. In words: Antimicrobial activity against Enterococcus faecalis. It is filed as functional.
Assay [7] concerns Staphylococcus aureus. Put plainly: Antibacterial activity against methicillin-resistant Staphylococcus aureus assessed as bacterial growth inhibition. Type of assay: functional.
For assay [8], the system named is Escherichia coli. In words: Antimicrobial activity against Escherichia coli at 50 uM. Type of assay: functional.
Assay [9] concerns Staphylococcus aureus. Put plainly: Antimicrobial activity against community acquired methicillin-resistant Staphylococcus aureus assessed as reduction in bacterial cell growth. Type of assay: functional.
For the next assay, the system named is Klebsiella pneumoniae. In words: Antibacterial activity against Klebsiella pneumoniae ATCC 700603 assessed as inhibition of bacterial cell growth.
Assay [10] deals with Escherichia coli. In words: Antibacterial activity against Escherichia coli assessed as reduction in bacterial cell growth. It is filed as functional.
Assay [11] relates to Staphylococcus aureus. Put plainly: Antibacterial activity against Staphylococcus aureus ATCC 29213 assessed as bacterial growth inhibition incubated for 24 hrs by broth dilution method. Type of assay: functional.
In assay [12] the test system is Pseudomonas aeruginosa. Put plainly: Antibacterial activity against Pseudomonas aeruginosa ATCC 10145 by broth microdilution method. Type of assay: functional.
Assay [13] deals with Staphylococcus aureus. Put plainly: Antibacterial activity against methicillin-resistant Staphylococcus aureus assessed as bacterial cell growth inhibition incubated for 18 hrs by microbroth dilution method. It is filed as functional.
The subject of assay [14] is Staphylococcus aureus. In words: Antibacterial activity against Staphylococcus aureus assessed as bacterial growth inhibition. It is filed as functional.
The subject of the next assay is Enterococcus faecium. In words: Antibacterial activity against vancomycin-resistant Enterococcus faecium 700221 assessed as reduction in bacterial growth inhibition measured after 16 hrs by microplate reader assay. Type of assay: functional.
Assay [15] deals with Staphylococcus aureus. Put plainly: Antibacterial activity against methicillin-resistant Staphylococcus aureus assessed as bacterial growth inhibition measured after 16 hrs by microplate reader assay. It is filed as functional.
Assay [16] has as its system Staphylococcus epidermidis. In words: Antibacterial activity against methicillin-resistant Staphylococcus epidermidis assessed as bacterial growth inhibition measured after 16 hrs by microplate reader assay. It is filed as functional.
For another assay, the system named is Bacillus subtilis. In words: Antibacterial activity against Bacillus subtilis ATCC 6633 assessed as reduction in bacterial cell growth incubated for 24 hrs by microtiter plate reader assay. Type of assay: functional.
Assay [17] has as its system Escherichia coli. Put plainly: Antibacterial activity against Escherichia coli ATCC 11229 assessed as reduction in bacterial cell growth incubated for 24 hrs by microtiter plate reader assay. It is filed as functional.
The test system of the next assay is Salmonella enterica. In words: Antibacterial activity against Salmonella enterica ATCC 14028 assessed as reduction in bacterial cell growth incubated for 24 hrs by microtiter plate reader assay. It is filed as functional.
Assay [18] has as its system Escherichia coli. In words: Antibacterial activity against Escherichia coli assessed as log reduction in bacterial load measured after 5 mins. Type of assay: functional.
Assay [19] deals with Staphylococcus aureus. Put plainly: Antibacterial activity against Staphylococcus aureus assessed as log reduction in bacterial load measured after 5 mins. Type of assay: functional.
In assay [20] the test system is Enterococcus faecalis. In words: Antibacterial activity against Enterococcus faecalis ATCC 29212 assessed as inhibition of bacterial growth incubated for 16 to 18 hrs by broth microdilution method. It is filed as functional. The note with it: time 16-18 hrs.
Assay [21] deals with Staphylococcus aureus. Put plainly: Antibacterial activity against Staphylococcus aureus. It is filed as functional.
The subject of assay [22] is Staphylococcus aureus. In words: Antibacterial activity against methicillin-resistant Staphylococcus aureus assessed as bacterial growth inhibition measured after 16 to 18 hrs by broth microdilution method. It is filed as functional. The following applies: time 16-18 hrs.
The test system of assay [23] is Pseudomonas aeruginosa. Put plainly: Antibacterial activity against Pseudomonas aeruginosa ATCC 27853 assessed as inhibition of bacterial growth incubated for 16 to 18 hrs by broth microdilution method. Type of assay: functional. The note with it: time 16-18 hrs.
For assay [24], the system named is Escherichia coli. Put plainly: Antibacterial activity against Escherichia coli ATCC 25922 assessed as inhibition of bacterial growth incubated for 16 to 18 hrs by broth microdilution method. Type of assay: functional. The following applies: time 16-18 hrs.
For assay [25], the system named is Staphylococcus aureus. Put plainly: Antibacterial activity against Staphylococcus aureus ATCC 700699 assessed as reduction in bacterial cell growth incubated for 24 hrs by microtiter plate reader assay. It is filed as functional.
In assay [26] the test system is Staphylococcus aureus. In words: Antibacterial activity against Staphylococcus aureus assessed as reduction in bacterial growth inhibition measured after 18 to 24 hrs by micro-broth dilution method. The following applies: time 18-24 hrs. It is filed as functional.
Assay [27] deals with Staphylococcus aureus. Put plainly: Antibacterial activity against methicillin resistant Staphylococcus aureus assessed as reduction in bacterial cell growth incubated for 18 to 24 hrs by microbroth dilution assay. The note with it: time 18-24 hrs. It is filed as functional.
Assay [28] deals with Staphylococcus aureus. In words: Antibacterial activity against Staphylococcus aureus ATCC 29213 assessed as inhibition of bacterial growth incubated for 16 hrs by CLSI based broth microdilution method. It is filed as functional.
Assay [29] has as its system Enterococcus faecalis. Put plainly: Antibacterial activity against vancomycin-resistant Enterococcus faecalis assessed as inhibition of bacterial growth incubated for 16 hrs by CLSI based broth microdilution method. It is filed as functional.
Assay [30] relates to Pseudomonas aeruginosa. Put plainly: Antibacterial activity against Pseudomonas aeruginosa ATCC 27853 assessed as inhibition of bacterial growth incubated for 16 hrs by CLSI based broth microdilution method. It is filed as functional.
The test system of assay [31] is Enterococcus faecalis. In words: Antibacterial activity against Enterococcus faecalis ATCC 29212 assessed as inhibition of bacterial growth incubated for 16 hrs by CLSI based broth microdilution method. It is filed as functional.
Assay [32] relates to Pseudomonas aeruginosa. Put plainly: Antibacterial activity against Pseudomonas aeruginosa assessed as reduction in bacterial cell growth. It is filed as functional.
Assay [33] relates to Staphylococcus aureus. Put plainly: Antibacterial activity against methicillin-sensitive Staphylococcus aureus assessed as reduction in microbial growth. Type of assay: functional.
Assay [34] concerns Staphylococcus aureus. In words: Antibacterial activity against Staphylococcus aureus […] assessed as reduction in bacterial growth inhibition measured after 24 hrs. It is filed as functional.
A further assay concerns Streptococcus pyogenes. In words: Antibacterial activity against Streptococcus pyogenes ATCC 19615 assessed as reduction in bacterial growth incubated for 18 hrs by micro-broth dilution assay. Type of assay: functional.
Assay [35] concerns Staphylococcus aureus. In words: Antibacterial activity against methicillin-resistant Staphylococcus aureus […] assessed as reduction in bacterial cell growth. Type of assay: functional.

As to `CCCCCCCCCCCCC[N+](C)(C)CCCN(C)CCC[N+](C)(C)CCCCCCCCCCCC.[Br-].[Br-]`, the MIC in the assay with Pseudomonas aeruginosa [1] is 4 µM; in the assay with Escherichia coli [2], less than 0.25 µM; in the assay on Staphylococcus aureus [4] it was 1 µM; in the assay with Enterococcus faecalis [5], less than 0.25 µM. For the same compound, the MBEC in the assay on Staphylococcus aureus [3] worked out at 50 µM.

Regarding `CCCCCCCCCCC[n+]1ccc(CCCc2cc[n+](CCCCCCCCCCC)cc2)cc1`, the MIC in the assay on Enterococcus faecalis [6] was found to be 0.5 µM; with Staphylococcus aureus [7], 0.25 µM; against Escherichia coli [8], 0.5 µM; in the assay with Staphylococcus aureus [9] it was 0.25 µM; in the assay with Staphylococcus aureus [4], 0.25 µM.

`CCCCCCCCC[n+]1cccc(Oc2ccc(-c3ccc(Oc4ccc[n+](CCCCCCCCC)c4)cc3)cc2)c1.[I-].[I-]`: the MIC with Staphylococcus aureus [7] is less than 0.25 mg/L; in the assay on Klebsiella pneumoniae it was 8 mg/L; in the assay on Escherichia coli [10] it was 0.5 mg/L.

On to `CCCC1OCc2c(CO)c(C[N+](C)(C/C=C/C#CC(C)(C)C)Cc3cccc4ccccc34)nc(C)c2O1.[Br-]` (stereo not drawn), for which the MIC in the assay on Staphylococcus aureus [11] came out at 4 mg/L.

For the compound `CCCCCCCC[n+]1ccc(SCCCCCCSc2cc[n+](CCCCCCCC)cc2)cc1.[Br-].[Br-]`, the minimum inhibitory concentration (MIC) with Pseudomonas aeruginosa [12] and with Staphylococcus aureus [13] was 8 mg/L each time.

On to `CCCCCCCCS(=O)(=O)Nc1ccc(-c2ccc(Cl)cc2)cc1C(=O)C(=O)NCCC[N+](C)(C)C.[I-]`, for which the MIC with Staphylococcus aureus [14] was 8 mg/L.

With `CCCCCCCCCCCCCCCCn1cc[n+](Cc2cccc(F)c2)c1C`, the MIC (with Enterococcus faecium; in the assay with Staphylococcus aureus [15]; in assay [16]) was 1.17 µM throughout.

For `CCCCCCCCCCCCCCCCCCNC(=O)CC[C@@H](C)[C@H]1CC[C@H]2[C@@H]3[C@H](OC(=O)C[n+]4ccccc4)C[C@@H]4C[C@H](OC(=O)C[n+]5ccccc5)CC[C@]4(C)[C@H]3C[C@H](O)[C@]12C.[Cl-].[Cl-]`, the MIC in the assay with Bacillus subtilis worked out at 0.8 mg/L; in the assay with Escherichia coli [17], 0.8 mg/L; in the assay on Salmonella enterica, 1.6 mg/L.

With `CC1(C)C(=O)N(CCCCCCCCCCCC[n+]2ccccc2)C(=O)N1Cl.[Cl-]`, the “log(activity)” value was 2.16 with Escherichia coli [18] and 6.62 in the assay with Staphylococcus aureus [19].

As to `CCCCCCCCCCCC[N+]12CC[N+](CCCCCCCCCCCC)(CC1)CC2`, the MIC worked out at 4 µM in the assay on Enterococcus faecalis [20]; 0.25 µM in the assay on Staphylococcus aureus [21]; 0.5 µM in the assay on Staphylococcus aureus [22]; 8 µM in the assay on Pseudomonas aeruginosa [23]; 2 µM in the assay on Escherichia coli [24].

Regarding `CCCCCCCCCCCCCCCCCC[N+](C)(C)Cc1cnc(C)c(O)c1C.Cl.[Cl-]`, the MIC in the assay on Staphylococcus aureus [25] stood at 0.5 mg/L.

As to `C[N+](C)(C)CCNC(=O)[C@H](Cc1c[nH]c2ccccc12)NC(=O)c1cc(Cl)ccc1NC(=O)c1ccc2ccccc2c1`, the MIC with Staphylococcus aureus [26] came out at 15.6 µM.

With `CC(C)(C)n1cc[n+](CCCCCCCCCCCC[n+]2ccn(C(C)(C)C)c2)c1.[Br-].[Br-]`, the MIC in the assay on Staphylococcus aureus [27] stood at 0.5 mg/L; with Staphylococcus aureus [28] it was 0.25 mg/L; in the assay on Escherichia coli [17], 0.5 mg/L; with Enterococcus faecalis [29], 0.5 mg/L; in the assay on Pseudomonas aeruginosa [30], 4 mg/L; in the assay with Enterococcus faecalis [31] it was 0.5 mg/L.

Regarding `CCCCCCCCCCC[n+]1ccc(CCc2cc[n+](CCCCCCCCCCC)cc2)cc1`, the MIC in the assay with Pseudomonas aeruginosa [32] worked out at 4 µM; in the assay with Staphylococcus aureus [33], 1 µM.

For `CCOC(=O)c1c[n+](C(C)C)c2cc3c(cc2c1Nc1ccc(OCc2ccccc2)cc1)OCO3`, in the assay on Staphylococcus aureus [34], the MIC came to 3.12 µM.

In the case of `CCCCCCCCCCCCCCC[n+]1ccn(Cc2ccccc2)c1.[Br-]`, the MIC in the assay with Streptococcus pyogenes was 0.03 mg/L.

With `CCCCCCCCCCCC[n+]1cccc(C[N+](C)(C)CCCCCCCCCCCC)c1`, the MIC with Staphylococcus aureus [35] is 1 µM.
